Values after ≈ are worked out from the molar mass of the structure shown. Active and inactive are the calls of the source. No cut-off for these calls is given here.
How the values were obtained:
[1] = target: T1, Metabotropic glutamate receptor 5 (Homo sapiens, UniProt P41594); assay: Agonist activity at human mGluR5 transiently transfected in BHK cells assessed as potentiation of L-glutamate-induced calcium flux by FLIPR assay; type: functional, cell-based
Target sequence in this assay (P41594 whole entry): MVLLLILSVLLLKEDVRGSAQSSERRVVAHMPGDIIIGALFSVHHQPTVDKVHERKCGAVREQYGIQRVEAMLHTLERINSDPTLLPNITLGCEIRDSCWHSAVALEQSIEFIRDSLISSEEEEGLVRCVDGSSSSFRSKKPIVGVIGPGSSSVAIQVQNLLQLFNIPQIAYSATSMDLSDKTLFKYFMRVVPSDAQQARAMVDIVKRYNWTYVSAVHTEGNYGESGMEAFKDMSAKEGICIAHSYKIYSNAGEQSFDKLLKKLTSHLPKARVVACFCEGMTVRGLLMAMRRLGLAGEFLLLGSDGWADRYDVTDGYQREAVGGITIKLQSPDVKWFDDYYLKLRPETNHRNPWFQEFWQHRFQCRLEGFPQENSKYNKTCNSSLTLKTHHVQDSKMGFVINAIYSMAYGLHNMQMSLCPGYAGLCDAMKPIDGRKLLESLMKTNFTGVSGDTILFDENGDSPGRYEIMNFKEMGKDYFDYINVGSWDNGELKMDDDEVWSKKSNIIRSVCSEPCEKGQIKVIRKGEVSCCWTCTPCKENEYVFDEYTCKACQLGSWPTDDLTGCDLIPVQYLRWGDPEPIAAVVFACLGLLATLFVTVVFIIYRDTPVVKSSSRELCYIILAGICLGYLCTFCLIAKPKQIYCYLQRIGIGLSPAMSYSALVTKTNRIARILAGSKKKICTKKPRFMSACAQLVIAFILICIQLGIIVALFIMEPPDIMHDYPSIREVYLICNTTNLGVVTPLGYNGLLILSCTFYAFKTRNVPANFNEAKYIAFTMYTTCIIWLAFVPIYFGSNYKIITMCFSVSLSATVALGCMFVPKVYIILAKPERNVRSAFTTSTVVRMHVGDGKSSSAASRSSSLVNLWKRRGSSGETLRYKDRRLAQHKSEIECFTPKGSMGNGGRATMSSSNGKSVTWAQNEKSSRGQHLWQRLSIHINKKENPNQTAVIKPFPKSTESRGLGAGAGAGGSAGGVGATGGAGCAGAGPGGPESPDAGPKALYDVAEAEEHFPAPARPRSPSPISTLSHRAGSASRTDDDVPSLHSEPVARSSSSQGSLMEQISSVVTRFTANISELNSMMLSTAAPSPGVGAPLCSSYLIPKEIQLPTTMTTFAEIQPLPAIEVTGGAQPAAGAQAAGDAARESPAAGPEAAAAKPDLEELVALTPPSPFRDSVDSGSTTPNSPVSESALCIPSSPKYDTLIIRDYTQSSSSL

[2] = target: T1, Metabotropic glutamate receptor 5; assay: Agonist activity at human mGluR5 transiently transfected in BHK cells assessed as potentiation of L-glutamate-induced calcium flux at 10 uM by FLIPR assay
Target sequence in this assay (P41594 whole entry): as above

[3] = Elimination half life in Lister Hooded rat at 2.5 mg/kg, po; type: ADME, organism-based; parameters: dose 2.5 mg/kg, route oral; conditions: in vivo, read-out: beta t1/2 (converted)
[4] = Ratio of drug level in brain to plasma in C57/6J mouse at 5 mg/kg, po by turboflow chromatography; type: ADME, organism-based; parameters: dose 5 mg/kg, route oral; conditions: brain and plasma
[5] = target: T1, Metabotropic glutamate receptor 5; assay: Potentiation of [3H]quisqualic acid binding to human recombinant mGluR5 expressed in BHK cells at >1 uM by radioligand binding assay; type: cell-based
Target sequence in this assay (P41594 21-1212 limits assumed): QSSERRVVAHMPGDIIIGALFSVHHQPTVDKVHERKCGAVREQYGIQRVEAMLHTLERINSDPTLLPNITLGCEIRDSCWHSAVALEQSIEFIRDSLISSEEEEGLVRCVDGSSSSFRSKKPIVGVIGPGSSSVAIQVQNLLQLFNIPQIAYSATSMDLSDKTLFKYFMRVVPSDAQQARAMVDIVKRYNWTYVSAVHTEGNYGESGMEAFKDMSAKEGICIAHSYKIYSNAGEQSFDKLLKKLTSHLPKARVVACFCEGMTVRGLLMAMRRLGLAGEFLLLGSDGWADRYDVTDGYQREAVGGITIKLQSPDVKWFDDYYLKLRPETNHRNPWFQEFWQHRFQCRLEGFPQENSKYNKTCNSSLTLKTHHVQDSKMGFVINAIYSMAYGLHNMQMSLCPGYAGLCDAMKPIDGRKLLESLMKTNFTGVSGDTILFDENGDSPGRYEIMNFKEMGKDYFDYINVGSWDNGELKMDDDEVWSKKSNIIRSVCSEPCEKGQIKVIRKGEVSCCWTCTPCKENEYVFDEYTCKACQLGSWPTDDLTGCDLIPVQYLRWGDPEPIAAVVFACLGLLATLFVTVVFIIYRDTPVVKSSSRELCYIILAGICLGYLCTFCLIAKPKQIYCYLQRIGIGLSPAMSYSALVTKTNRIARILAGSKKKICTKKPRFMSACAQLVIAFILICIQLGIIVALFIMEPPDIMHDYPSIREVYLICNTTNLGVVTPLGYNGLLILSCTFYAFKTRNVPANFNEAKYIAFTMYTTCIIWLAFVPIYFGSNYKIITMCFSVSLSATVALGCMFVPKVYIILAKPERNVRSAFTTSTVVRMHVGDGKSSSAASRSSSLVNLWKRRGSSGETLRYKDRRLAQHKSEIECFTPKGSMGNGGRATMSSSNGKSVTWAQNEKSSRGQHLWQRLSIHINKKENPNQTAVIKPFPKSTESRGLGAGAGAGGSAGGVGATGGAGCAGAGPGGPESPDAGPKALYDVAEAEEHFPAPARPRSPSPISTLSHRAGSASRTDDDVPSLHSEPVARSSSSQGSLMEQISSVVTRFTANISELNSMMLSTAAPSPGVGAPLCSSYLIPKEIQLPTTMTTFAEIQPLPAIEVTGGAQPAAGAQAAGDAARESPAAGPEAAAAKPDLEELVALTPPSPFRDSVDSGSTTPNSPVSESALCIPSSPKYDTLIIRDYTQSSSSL

[6] = target: T1, Metabotropic glutamate receptor 5; assay: Agonist activity at human mGluR5 transiently transfected in BHK cells assessed as potentiation of L-glutamate-induced calcium flux at 1000 nM by FLIPR assay; type: functional, cell-based
Target sequence in this assay (P41594 21-1212 limits assumed): as above

[7] = Ratio of drug level in brain to plasma in Lister Hooded rat at 2.5 mg/kg, po by turboflow chromatography; type: ADME, organism-based; parameters: dose 2.5 mg/kg, route oral; conditions: brain and plasma
[8] = target: T1, Metabotropic glutamate receptor 5; assay: Displacement of [3H]quisqualic acid from human recombinant mGluR5 expressed in BHK cells by radioligand binding assay; type: cell-based
Target sequence in this assay (P41594 21-1212 limits assumed): as above

[9] = target: T1, Metabotropic glutamate receptor 5; assay: Agonist activity at human mGluR5 transiently transfected in BHK cells assessed as 5.5 fold decrease in L-glutamate EC50 for induction of calcium flux at 1 uM by FLIPR assay
Target sequence in this assay (P41594 21-1212 limits assumed): as above

[10] = target: T1, Metabotropic glutamate receptor 5; assay: Activity at human mGluR5 transiently transfected in BHK cells assessed as decrease in maximum response of L-glutamate for calcium flux at 0.60 uM by FLIPR assay; type: functional, cell-based
Target sequence in this assay (P41594 21-1212 limits assumed): as above

[11] = target: T1, Metabotropic glutamate receptor 5; assay: Agonist activity at human mGluR5 transiently transfected in BHK cells assessed as potentiation of L-glutamate-induced calcium flux at 100 nM by FLIPR assay; type: functional, cell-based
Target sequence in this assay (P41594 21-1212 limits assumed): as above

[12] = Elimination half life in C57/6J mouse at 5 mg/kg, po; type: ADME, organism-based; parameters: dose 5 mg/kg, route oral; conditions: in vivo, read-out: beta t1/2 (converted)
[13] = target: Metabotropic glutamate receptor 1 (Homo sapiens) (UniProt Q13255); assay: Antagonist activity at mGluR1 at 10 uM; type: functional
[14] = Aqueous solubility at pH 7.4; type: physicochemical; conditions: aqueous medium
[15] = target: Metabotropic glutamate receptor 1 (Homo sapiens) (UniProt Q13255); assay: Agonist activity at mGluR1 at 10 uM; type: functional
[16] = target: T1, Metabotropic glutamate receptor 5; assay: Displacement of [3H]MPEP from human recombinant mGluR5 expressed in BHK cells at by radioligand binding assay; type: cell-based
Target sequence in this assay (P41594 whole entry): as the sequence (P41594 whole entry) above

[17] = target: Metabotropic glutamate receptor 1 (Homo sapiens) (UniProt Q13255); assay: Allosteric modulation of mGluR1 at 10 uM
[18] = target: T1, Metabotropic glutamate receptor 5; assay: Agonist activity at human mGluR5 transiently transfected in BHK cells assessed as potentiation of L-glutamate-induced calcium flux by FLIPR assay relative to L-glutamate; type: functional, cell-based

Chain of Metabotropic glutamate receptor 1 (Homo sapiens) (Q13255 19-1194 limits assumed): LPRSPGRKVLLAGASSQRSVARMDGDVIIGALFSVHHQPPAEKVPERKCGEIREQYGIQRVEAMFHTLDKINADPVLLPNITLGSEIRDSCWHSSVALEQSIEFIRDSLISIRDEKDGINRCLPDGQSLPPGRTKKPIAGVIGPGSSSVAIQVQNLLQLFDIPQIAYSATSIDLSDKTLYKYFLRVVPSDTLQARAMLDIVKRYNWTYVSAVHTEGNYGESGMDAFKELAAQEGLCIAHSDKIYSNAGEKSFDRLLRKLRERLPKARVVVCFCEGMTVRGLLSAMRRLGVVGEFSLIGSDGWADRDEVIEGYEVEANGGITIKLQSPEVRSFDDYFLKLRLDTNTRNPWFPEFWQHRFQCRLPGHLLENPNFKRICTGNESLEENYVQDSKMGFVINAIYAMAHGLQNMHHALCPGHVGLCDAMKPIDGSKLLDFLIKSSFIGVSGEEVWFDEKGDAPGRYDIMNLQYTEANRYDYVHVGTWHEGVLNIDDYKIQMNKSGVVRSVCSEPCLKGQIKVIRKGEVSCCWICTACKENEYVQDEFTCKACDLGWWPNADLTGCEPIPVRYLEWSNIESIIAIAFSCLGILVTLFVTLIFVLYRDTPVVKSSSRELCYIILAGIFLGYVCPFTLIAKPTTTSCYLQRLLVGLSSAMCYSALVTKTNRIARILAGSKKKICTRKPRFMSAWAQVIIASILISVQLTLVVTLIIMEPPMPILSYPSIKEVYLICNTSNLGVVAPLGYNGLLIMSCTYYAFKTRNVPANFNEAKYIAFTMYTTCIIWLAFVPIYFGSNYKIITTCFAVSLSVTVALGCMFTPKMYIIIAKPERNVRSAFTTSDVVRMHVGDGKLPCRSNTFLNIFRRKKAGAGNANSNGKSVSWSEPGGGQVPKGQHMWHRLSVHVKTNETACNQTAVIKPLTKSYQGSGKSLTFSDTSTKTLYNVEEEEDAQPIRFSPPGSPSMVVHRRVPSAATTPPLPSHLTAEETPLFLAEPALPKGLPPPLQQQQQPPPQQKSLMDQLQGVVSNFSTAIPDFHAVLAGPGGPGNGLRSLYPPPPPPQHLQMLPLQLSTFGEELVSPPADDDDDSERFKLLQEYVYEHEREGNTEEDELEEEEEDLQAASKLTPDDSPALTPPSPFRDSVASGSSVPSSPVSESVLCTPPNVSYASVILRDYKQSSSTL

Question: With CC1CCC(NC(=O)c2ccc(C#Cc3ccccc3)nc2)CC1 (stereo not drawn) as the compound, how does the EC50 [1] read?
Answer: Its EC50 is 1200 nM.

Question: With CCOC(=O)c1ccc(C#Cc2ccccc2)nc1 as the compound, how does the EC50 [2] read?
Answer: Its EC50 is “Not Active”.

Question: With O=C(c1ccc(C#Cc2ccccc2)nc1)N1CCSCC1 as the compound, how does the EC50 [1] read?
Answer: Its EC50 is 46 nM.

Question: For O=C(c1ccc(C#Cc2ccccc2)nc1)N1CCOCC1, which EC50 [1] is on record?
Answer: The EC50 was 990 nM.

Question: Which EC50 [1] does the source give for CN1CCN(C(=O)c2ccc(C#Cc3ccccc3)nc2)CC1 here?
Answer: The EC50 was 1600 nM.

Question: With O=C(NCc1ccco1)c1ccc(C#Cc2ccccc2)nc1 as the compound, how does the EC50 [1] read?
Answer: Its EC50 is 180 nM.

Question: Which EC50 [1] does the source give for CC1CCN(C(=O)c2ccc(C#Cc3ccccc3)cc2)CC1 here?
Answer: The EC50 was 720 nM.

Question: With O=C(NC1CCCCC1)c1ccc(C#Cc2ccccc2)nc1 as the compound, how does the EC50 [1] read?
Answer: The EC50 was 240 nM.

Question: With O=C(NCc1ccsc1)c1ccc(C#Cc2ccccc2)cc1 as the compound, how does the EC50 [1] read?
Answer: The EC50 was 1200 nM.

Question: For CN1CCN(C(=O)c2ccc(C#Cc3ccccc3)cc2)CC1, which EC50 [1] is on record?
Answer: Its EC50 is 3100 nM.

Question: For CC(C)CCNC(=O)c1ccc(C#Cc2ccccc2)nc1, which EC50 [1] is on record?
Answer: Its EC50 is 510 nM.

Question: Which half-life [3] does the source give for O=C(NC1CCCC1)c1ccc(C#Cc2ccccc2)nc1 here?
Answer: The half-life was 4 h.

Question: And the Kp [4]?
Answer: The Kp was 0.5.

Question: What about the Activity [5] of the same compound?
Answer: Its Activity is 30%.

Question: What about the Activity [6] of the same compound?
Answer: Its Activity is “Active”.

Question: What about the Kp [7] of the same compound?
Answer: The Kp was 0.3.

Question: What about the Activity [8] of the same compound?
Answer: The Activity was “inactive”.

Question: And the Activity [9]?
Answer: The Activity was “Active”.

Question: And the EC50 [1]?
Answer: Its EC50 is 30 nM.

Question: What about the Activity [10] of the same compound?
Answer: Its Activity is “Active”.

Question: What about the Activity [11] of the same compound?
Answer: Its Activity is “Active”.

Question: What about the half-life [12] of the same compound?
Answer: Its half-life is 1 h.

Question: What about the Activity [13] of the same compound?
Answer: The Activity was “inactive”.

Question: What about the solubility [14] of the same compound?
Answer: Its solubility is 1.7 µM (≈ 0.494 µg/mL).

Question: What about the Activity [15] of the same compound?
Answer: The Activity was “inactive”.

Question: What about the Ki [16] of the same compound?
Answer: The Ki was 1800 nM.

Question: And the Activity [17]?
Answer: The Activity was “inactive”.

Question: For O=C(NCc1ccsc1)c1ccc(C#Cc2ccccc2)nc1, which EC50 [1] is on record?
Answer: The EC50 was 140 nM.

Question: What does the source list for C(#Cc1ccc(C(N2CCOCC2)N2CCOCC2)cc1)c1ccccc1?
Answer: EC50 [1]: 970 nM; Activity [18]: 73%

Question: Which EC50 [1] does the source give for CC1CCN(C(=O)c2ccc(C#Cc3ccccc3)nc2)CC1 here?
Answer: The EC50 was 130 nM.

Question: For O=C(c1ccc(C#Cc2ccccc2)nc1)N1CCCCC1, which EC50 [1] is on record?
Answer: Its EC50 is 280 nM.

Question: With NC(=O)c1ccc(C#Cc2ccccc2)nc1 as the compound, how does the EC50 [1] read?
Answer: The EC50 was 6600 nM.
